Assay results: PubChem BioAssay AID256 (DTP/NCI, 2004)
Values joined by “and” are separate entries in the source; they are usually repeats but may differ in a detail not shown here. Equal entries are not always repeated. Inconclusive results and toxic doses are left out.

Tested on: CD2F1 mice, L1210 leukemia ip, survival T/C
Test: NCI In Vivo Anticancer Drug Screen. Data for tumor model L1210 Leukemia (intraperitoneal) in CD2F1 (CDF1) mice
Settings: higher = longer survival
Procedure, shortened: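 Each value reflects a quotient of treated over vehicle control outcomes in mice with a transplanted tumor.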

[1] = endpoint: mean survival time, dose: 100.0 mg/kg/injection, schedule: Q01DX009 (ip), vehicle: saline with Tween-80
[2] = endpoint: mean survival time, dose: 100.0 mg/kg/injection, schedule: Q04DX003 (ip), vehicle: saline with Tween-80
[3] = endpoint: mean survival time, dose: 200.0 mg/kg/injection, schedule: Q01DX009 (ip), vehicle: saline with Tween-80
[4] = endpoint: mean survival time, dose: 200.0 mg/kg/injection, schedule: Q04DX003 (ip), vehicle: saline with Tween-80
[5] = endpoint: mean survival time, dose: 400.0 mg/kg/injection, schedule: Q04DX003 (ip), vehicle: saline with Tween-80
[6] = endpoint: mean survival time, dose: 100.0 mg/kg/injection, schedule: Q04DX002 (ip), vehicle: saline with Tween-80
[7] = endpoint: mean survival time, dose: 25.0 mg/kg/injection, schedule: Q04DX002 (ip), vehicle: saline with Tween-80
[8] = endpoint: mean survival time, dose: 50.0 mg/kg/injection, schedule: Q04DX002 (ip), vehicle: saline with Tween-80
[9] = endpoint: mean survival time, dose: 50.0 mg/kg/injection, schedule: Q01DX009 (ip), vehicle: saline with Tween-80
[10] = endpoint: mean survival time, dose: 12.5 mg/kg/injection, schedule: Q01DX001 (ip), vehicle: saline with Tween-80
[11] = endpoint: mean survival time, dose: 25.0 mg/kg/injection, schedule: Q01DX001 (ip), vehicle: saline with Tween-80
[12] = endpoint: mean survival time, dose: 25.0 mg/kg/injection, schedule: Q04DX002 (ip), vehicle: saline
[13] = endpoint: mean survival time, dose: 12.5 mg/kg/injection, schedule: Q01DX009 (ip), vehicle: water
[14] = endpoint: mean survival time, dose: 25.0 mg/kg/injection, schedule: Q01DX009 (ip), vehicle: water
[15] = endpoint: mean survival time, dose: 50.0 mg/kg/injection, schedule: Q01DX009 (ip), vehicle: water
[16] = endpoint: mean survival time, dose: 100.0 mg/kg/injection, schedule: Q01DX009 (ip), vehicle: water
[17] = endpoint: mean survival time, dose: 200.0 mg/kg/injection, schedule: Q01DX001 (ip), vehicle: saline with Tween-80
[18] = endpoint: mean survival time, dose: 400.0 mg/kg/injection, schedule: Q01DX009 (ip), vehicle: saline with Tween-80

For `C=C1C(=O)OCC1(C(=O)OCC)C(=O)OCC`, the T/C (endpoint: mean survival time, dose: 5.0 mg/kg/injection, schedule: Q01DX001 (ip), vehicle: saline) was 100 % of control, the T/C (endpoint: mean survival time, dose: 10.0 mg/kg/injection, schedule: Q01DX001 (ip), vehicle: saline) was 100 % of control and the T/C (endpoint: mean survival time, dose: 20.0 mg/kg/injection, schedule: Q01DX001 (ip), vehicle: saline) was 100 % of control. For the same compound, the T/C (endpoint: mean survival time, dose: 40.0 mg/kg/injection, schedule: Q01DX001 (ip), vehicle: saline) was 108 % of control.

For `CCCCC(C)(O)CC` (stereo unspecified), the T/C [1] was 93 % of control, the T/C [2] was 95 % of control and the T/C [3] was 95 % of control. The T/C [4] was 105 % of control and the T/C [5] was 107 % of control.

`COc1ccc(NC(=O)Oc2c(C)cccc2C)cc1` was tested, and the T/C [6] was 97 % of control, the T/C (endpoint: mean survival time, dose: 200.0 mg/kg/injection, schedule: Q04DX002 (ip), vehicle: saline with Tween-80) was 97 % of control and the T/C (endpoint: mean survival time, dose: 400.0 mg/kg/injection, schedule: Q04DX002 (ip), vehicle: saline with Tween-80) was 101 % of control.

`CCCCN(C)c1ccc(N=Nc2cc(Cl)ccc2Cl)cc1` was tested, and the T/C [7] was 96 % of control, the T/C [8] was 101 % of control and the T/C [6] was 104 % of control.

With `OC1c2ccccc2CC1N1CCCCC1` (stereo unspecified) the T/C (endpoint: mean survival time, dose: 25.0 mg/kg/injection, schedule: Q01DX009 (ip), vehicle: saline with Tween-80) was 95 % of control, the T/C [9] was 101 % of control and the T/C [1] was 98 % of control.

In the case of `O=C(O)c1ccccc1C(=O)c1cccc2ccccc12`, the T/C [2] is reported as 104 % of control and the T/C [4] is reported as 96 % of control.

With `CCCCCCCCCCCCCCCC[N+]1(C)CCSCC1` the T/C (endpoint: mean survival time, dose: 0.78 mg/kg/injection, schedule: Q01DX009 (ip), vehicle: saline) was 93 % of control and 103 % of control, the T/C (endpoint: mean survival time, dose: 1.56 mg/kg/injection, schedule: Q04DX003 (ip), vehicle: saline) was 106 % of control and the T/C (endpoint: mean survival time, dose: 3.13 mg/kg/injection, schedule: Q01DX001 (ip), vehicle: saline) was 104 % of control. The T/C (endpoint: mean survival time, dose: 3.13 mg/kg/injection, schedule: Q04DX003 (ip), vehicle: saline) was 110 % of control, the T/C (endpoint: mean survival time, dose: 6.25 mg/kg/injection, schedule: Q01DX001 (ip), vehicle: saline) was 104 % of control and the T/C (endpoint: mean survival time, dose: 6.25 mg/kg/injection, schedule: Q04DX003 (ip), vehicle: saline) was 104 % of control. For the same compound, the T/C [10] was 97 % of control, the T/C (endpoint: mean survival time, dose: 12.5 mg/kg/injection, schedule: Q01DX001 (ip), vehicle: saline) was 104 % of control and the T/C (endpoint: mean survival time, dose: 12.5 mg/kg/injection, schedule: Q04DX003 (ip), vehicle: saline) was 102 % of control. For the same compound, the T/C [11] was 95 % of control, the T/C (endpoint: mean survival time, dose: 25.0 mg/kg/injection, schedule: Q01DX001 (ip), vehicle: saline) was 104 % of control and the T/C (endpoint: mean survival time, dose: 25.0 mg/kg/injection, schedule: Q01DX009 (ip), vehicle: saline) was 87 % of control. For the same compound, the T/C [12] was 88 % of control and the T/C (endpoint: mean survival time, dose: 50.0 mg/kg/injection, schedule: Q01DX001 (ip), vehicle: saline with Tween-80) was 100 % of control.

In the case of `Nc1ccc(SCCCc2c(N)nc(N)nc2N)cc1`, the T/C (endpoint: mean survival time, dose: 100.0 mg/kg/injection, schedule: Q01DX001 (ip), vehicle: other) is reported as 100 % of control and the T/C (endpoint: mean survival time, dose: 200.0 mg/kg/injection, schedule: Q01DX001 (ip), vehicle: other) is reported as 96 % of control.

For `COc1ccc(OC)c(CC(CC(=O)O)C(C)=O)c1` (stereo unspecified), the T/C [13] was 96 % of control, the T/C [14] was 100 % of control and the T/C [15] was 96 % of control. For the same compound, the T/C [16] was 96 % of control and the T/C (endpoint: mean survival time, dose: 200.0 mg/kg/injection, schedule: Q01DX009 (ip), vehicle: water) was 100 % of control.

`COc1c(NC(C)=O)cc2c(c1C)OC(C)(C)C=C2` was tested, and the T/C [1] was 101 % of control and the T/C [3] was 98 % of control.

`O.O.[Co].[Co].[NH-]CC[NH-].[NH-]CC[NH-].[NH-]CC[NH-].[NH-]CC[NH-]` was tested, and the T/C [12] was 98 % of control and the T/C (endpoint: mean survival time, dose: 50.0 mg/kg/injection, schedule: Q04DX002 (ip), vehicle: saline) was 106 % of control.

`CCC(=O)c1cc([N+](=O)[O-])ccc1N` was tested, and the T/C [2] was 95 % of control and the T/C [4] was 95 % of control.

For `FC(F)(F)/C([S-])=C(/[S-])C(F)(F)F.FC(F)(F)/C([S-])=C(/[S-])C(F)(F)F.FC(F)(F)/C([S-])=C(/[S-])C(F)(F)F.FC(F)(F)/C([S-])=C(/[S-])C(F)(F)F.[Co+3].[Co+3]`, the T/C (endpoint: mean survival time, dose: 12.5 mg/kg/injection, schedule: Q04DX003 (ip), vehicle: other) was 95 % of control, the T/C (endpoint: mean survival time, dose: 25.0 mg/kg/injection, schedule: Q04DX003 (ip), vehicle: other) was 95 % of control and the T/C (endpoint: mean survival time, dose: 50.0 mg/kg/injection, schedule: Q04DX003 (ip), vehicle: other) was 98 % of control.

In the case of `CC12c3ccccc3C(c3ccccc31)C1C(=O)OC(=O)C12` (stereo unspecified), the T/C [9] is reported as 95 % of control and the T/C [1] is reported as 103 % of control.

With `CC(C)C(Nc1sc([N+](=O)[O-])cc1[N+](=O)[O-])C(=O)O` (stereo unspecified) the T/C (endpoint: mean survival time, dose: 100.0 mg/kg/injection, schedule: Q01DX001 (ip), vehicle: saline with Tween-80) was 90 % of control, the T/C [17] was 102 % of control and the T/C (endpoint: mean survival time, dose: 400.0 mg/kg/injection, schedule: Q01DX001 (ip), vehicle: saline with Tween-80) was 107 % of control.

For `COc1ccc(C2NCCc3cc(OC)c(OC)cc32)cc1OC` (stereo unspecified), the T/C [13] was 98 % of control, the T/C [14] was 98 % of control and the T/C [15] was 98 % of control. For the same compound, the T/C [16] was 106 % of control.

In the case of `COc1ccc(C(=O)C(O)c2ccccc2)cc1` (stereo unspecified), the T/C (endpoint: mean survival time, dose: 100.0 mg/kg/injection, schedule: Q04DX003 (ip), vehicle: other) is reported as 97 % of control, the T/C (endpoint: mean survival time, dose: 200.0 mg/kg/injection, schedule: Q04DX003 (ip), vehicle: other) is reported as 92 % of control and the T/C (endpoint: mean survival time, dose: 400.0 mg/kg/injection, schedule: Q04DX003 (ip), vehicle: other) is reported as 92 % of control.

`C[n+]1c(-c2cccc(-c3ccccc3)c2)c2cc(N)ccc2c2ccccc21` was tested, and the T/C (endpoint: mean survival time, dose: 0.78 mg/kg/injection, schedule: Q01DX009 (ip), vehicle: other) was 92 % of control, the T/C (endpoint: mean survival time, dose: 1.56 mg/kg/injection, schedule: Q01DX009 (ip), vehicle: other) was 92 % of control and the T/C (endpoint: mean survival time, dose: 3.13 mg/kg/injection, schedule: Q01DX009 (ip), vehicle: other) was 104 % of control. For the same compound, the T/C (endpoint: mean survival time, dose: 6.25 mg/kg/injection, schedule: Q01DX009 (ip), vehicle: other) was 108 % of control and 110 % of control.

With `CCC(=O)Oc1ccc(C2N(Cc3ccc(N(C)C)cc3)CCCN2Cc2ccc(N(C)C)cc2)cc1` the T/C [2] was 103 % of control, the T/C [3] was 89 % of control and the T/C [4] was 92 % of control.

For `[Cl][Gd]([Cl])[Cl]`, the T/C [1] was 92 % of control and the T/C [3] was 94 % of control.

With `Nc1nc(Nc2ccccc2)c2ncn(C3OC(CO)C(O)C3O)c2n1` (stereo unspecified) the T/C (endpoint: mean survival time, dose: 6.25 mg/kg/injection, schedule: Q01DX005 (ip), vehicle: distilled water + Tween-80) was 98 % of control, the T/C (endpoint: mean survival time, dose: 12.5 mg/kg/injection, schedule: Q01DX005 (ip), vehicle: distilled water + Tween-80) was 98 % of control and the T/C (endpoint: mean survival time, dose: 25.0 mg/kg/injection, schedule: Q01DX005 (ip), vehicle: distilled water + Tween-80) was 102 % of control. The T/C (endpoint: mean survival time, dose: 50.0 mg/kg/injection, schedule: Q01DX005 (ip), vehicle: distilled water + Tween-80) was 101 % of control and the T/C (endpoint: mean survival time, dose: 100.0 mg/kg/injection, schedule: Q01DX005 (ip), vehicle: distilled water + Tween-80) was 98 % of control.

`COc1ccc(N2C(=O)C=CC2=O)cc1` was tested, and the T/C (endpoint: mean survival time, dose: 6.25 mg/kg/injection, schedule: Q01DX001 (ip), vehicle: saline with Tween-80) was 103 % of control, the T/C [10] was 88 % of control and the T/C [11] was 94 % of control and 97 % of control.

With `COC(=O)Nc1cccc(OC(=O)N(C)C)c1` the T/C [1] was 97 % of control, the T/C [3] was 97 % of control and the T/C [18] was 96 % of control.

With `NC(Cc1ccccc1)C(=O)OCN1C(=O)C2C3C=CC(C2C1=O)C1C2C(=O)N(COC(=O)C(N)Cc4ccccc4)C(=O)C2C31` (stereo unspecified) the T/C (endpoint: median survival time, dose: 21.6 mg/kg/injection, schedule: Q01DX009 (ip), vehicle: water) was 116 % of control, the T/C (endpoint: median survival time, dose: 36.0 mg/kg/injection, schedule: Q01DX009 (ip), vehicle: water) was 117 % of control and the T/C (endpoint: median survival time, dose: 100.0 mg/kg/injection, schedule: Q01DX009 (ip), vehicle: water) was 188 % of control.

`NN(C(=O)c1ccccc1)c1ccccc1` was tested, and the T/C [1] was 98 % of control, the T/C [2] was 95 % of control and the T/C [4] was 97 % of control. For the same compound, the T/C [5] was 100 % of control.

In the case of `CCCCCCCCCCCCCCC(=O)Nc1ccccc1`, the T/C (endpoint: mean survival time, dose: 12.5 mg/kg/injection, schedule: Q04DX002 (ip), vehicle: saline with Tween-80) is reported as 101 % of control, the T/C [7] is reported as 96 % of control and the T/C [8] is reported as 86 % of control. The T/C [17] was 89 % of control.

With `Nc1nc(CCCCc2ccccc2)c(N=Nc2ccc(Cl)cc2)c(=O)[nH]1` the T/C [1] was 90 % of control, the T/C [3] was 90 % of control and the T/C [18] was 87 % of control.
